Columns and labels:
[1] = target: T1, human CRTH2 (Homo sapiens, UniProt Q9Y5Y4, V204A); assay: Functional antagonist BRET assay on HEK293 cells stably expressing human CRTH2-Rluc and GFP2-β-arr2; assay type: cell-based; design: expressed in transfected cells; settings: read-out: Antag. IC50
T1 sequence (Q9Y5Y4 1-395 V204A): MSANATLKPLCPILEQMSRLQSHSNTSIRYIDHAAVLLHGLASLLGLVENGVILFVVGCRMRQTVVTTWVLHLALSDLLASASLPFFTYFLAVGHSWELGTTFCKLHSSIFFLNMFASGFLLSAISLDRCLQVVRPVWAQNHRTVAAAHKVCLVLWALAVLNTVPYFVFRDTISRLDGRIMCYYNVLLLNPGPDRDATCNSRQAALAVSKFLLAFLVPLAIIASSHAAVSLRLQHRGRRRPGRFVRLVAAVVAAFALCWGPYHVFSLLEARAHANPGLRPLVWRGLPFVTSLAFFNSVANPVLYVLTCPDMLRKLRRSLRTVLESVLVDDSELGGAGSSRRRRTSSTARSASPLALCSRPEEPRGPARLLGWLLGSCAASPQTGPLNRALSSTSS
How it was run: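 Cells (2×10^6/mL in D-PBS with glucose) were preincubated 15 min with antagonist at 1% DMSO, then agonist and DeepBlueC were co-injected. Emission at 400 and 515 nm was read 5 s later, and the mBRET ratio (515/400 nm) was used to derive IC50 from concentration–response curves.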

[2] = target: T1, human CRTH2; assay: Receptor binding assay: [3H]PGD2 competition binding on whole COS-7 cells transiently transfected with CRTH2 (also stable HEK293 cells); design: expressed in transfected cells; host or cells: COS-7 (transient, calcium phosphate)
How it was run: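 Whole COS-7 cells transiently transfected with human CRTH2 (calcium phosphate), or stable HEK293 cells, competed against 0.1 nM [3H]PGD2 in HBSS/10 mM HEPES with 1% DMSO, 3 h at 4 °C. Nonspecific binding with 10 μM PGD2; scintillation counting, duplicates. IC50 from curve fitting.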

[3] = functional antagonist assay, Table 3
[4] = receptor binding assay, Table 3
[5] = BRET, antagonist incubated 15 minutes prior to agonist
[6] = competition with 0.1 nM [3H]PGD2, whole cells, 3 h at 4° C.

O=C(O)COc1ccc(Br)cc1-c1nc(-c2ccc(OC(F)(F)F)cc2)no1 [D103, {4-Bromo-2-[3-(4-trifluoromethoxyphenyl)-[1,2,4]oxadiazol-5-yl]phenoxy}acetic acid]
IC50 [1, 3]: < 500 nM
IC50 [2, 4]: < 500 nM

COc1cccc(-c2noc(-c3cc(Br)ccc3OCC(=O)O)n2)c1 [D104, {4-Bromo-2-[3-(3-methoxyphenyl)-[1,2,4]oxadiazol-5-yl]phenoxy}acetic acid]
IC50 [1, 3]: < 500 nM
IC50 [2, 4]: < 500 nM

O=C(O)COc1ccc(Br)cc1-c1nc(-c2cccc(Cl)c2)no1 [D105, {4-Bromo-2-[3-(3-chlorophenyl)-[1,2,4]oxadiazol-5-yl]phenoxy}acetic acid]
IC50 [1, 3]: < 500 nM
IC50 [2, 4]: < 500 nM

O=C(O)COc1ccc(Br)cc1-c1nc(-c2ccc(C(F)(F)F)cc2)no1 [D106, {4-Bromo-2-[3-(4-trifluoromethyl-phenyl)-[1,2,4]oxadiazol-5-yl]phenoxy}-acetic acid]
IC50 [1, 3]: < 500 nM
IC50 [2, 4]: < 500 nM

COc1ccccc1-c1noc(-c2cc(Br)ccc2OCC(=O)O)n1 [D107, {4-Bromo-2-[3-(2-methoxyphenyl)-[1,2,4]oxadiazol-5-yl]phenoxy}acetic acid]
IC50 [1, 3]: < 500 nM
IC50 [2, 4]: < 500 nM

O=C(O)COc1ccc(Br)cc1-c1nc(-c2ccccc2Cl)no1 [D108, {4-Bromo-2-[3-(2-chlorophenyl)-[1,2,4]oxadiazol-5-yl]phenoxy}acetic acid]
IC50 [1, 3]: < 500 nM
IC50 [2, 4]: < 500 nM

O=C(O)COc1ccc(Br)cc1-c1nc(-c2cc(C(F)(F)F)cc(C(F)(F)F)c2)no1 [D109, {2-[3-(3,5-Bis-trifluoromethyl-phenyl)-[1,2,4]oxadiazol-5-yl]-4-bromo-phenoxy}-acetic acid]
IC50 [1, 3]: > 5000 nM
IC50 [2, 4]: < 500 nM

O=C(O)COc1ccc(Br)cc1-c1nc(-c2c(Cl)cccc2Cl)no1 [D110, {4-Bromo-2-[3-(2,6-dichlorophenyl)-[1,2,4]oxadiazol-5-yl]phenoxy}acetic acid]
IC50 [1, 3]: < 500 nM
IC50 [2, 4]: < 500 nM

O=C(O)COc1ccc(Br)cc1-c1nc(-c2ccc(Oc3ccccc3)cc2)no1 [D111, {4-Bromo-2-[3-(4-phenoxy-phenyl)-[1,2,4]oxadiazol-5-yl]-phenoxy}-acetic acid]
IC50 [1, 3]: < 500 nM
IC50 [2, 4]: < 500 nM

O=C(O)COc1ccc(Br)cc1-c1nc(-c2cccc(C(F)(F)F)c2)no1 [D112, {4-Bromo-2-[3-(3-trifluoromethylphenyl)-[1,2,4]oxadiazol-5-yl]phenoxy}-acetic acid]
IC50 [1, 3]: < 500 nM
IC50 [2, 4]: < 500 nM

O=C(O)COc1ccc(Br)cc1-c1nc(Cc2ccc(OC(F)(F)F)cc2)no1 [D113, {4-Bromo-2-[3-(4-trifluoromethoxy-benzyl)-[1,2,4]oxadiazol-5-yl]-phenoxy}-acetic acid]
IC50 [1, 3]: < 500 nM
IC50 [2, 4]: < 500 nM

O=C(O)COc1ccc(Br)cc1-c1nc(Cc2ccc(Cl)cc2)no1 [D114, {4-Bromo-2-[3-(4-chloro-benzyl)-[1,2,4]oxadiazol-5-yl]-phenoxy}-acetic acid]
IC50 [1, 3]: < 500 nM
IC50 [2, 4]: < 500 nM

O=C(O)COc1ccc(Br)cc1-c1nc(Cc2ccccc2)no1 [D115, [2-(3-Benzyl-[1,2,4]oxadiazol-5-yl)-4-bromo-phenoxy]-acetic acid]
IC50 [1, 3]: < 500 nM
IC50 [2, 4]: < 500 nM

O=C(O)COc1ccc(Br)cc1-c1nc(Cc2ccc(F)cc2)no1 [D116, {4-Bromo-2-[3-(4-fluoro-benzyl)-[1,2,4]oxadiazol-5-yl]-phenoxy}-acetic acid]
IC50 [1, 3]: < 500 nM
IC50 [2, 4]: < 500 nM

O=C(O)COc1ccc(Br)cc1-c1nc(Cc2cc(F)cc(F)c2)no1 [D117, {4-Bromo-2-[3-(3,5-difluoro-benzyl)-[1,2,4]oxadiazol-5-yl]-phenoxy}-acetic acid]
IC50 [1, 3]: < 500 nM
IC50 [2, 4]: < 500 nM

COc1ccc(Cc2noc(-c3cc(Br)ccc3OCC(=O)O)n2)cc1 [D118, {4-Bromo-2-[3-(4-methoxy-benzyl)-[1,2,4]oxadiazol-5-yl]-phenoxy}-acetic acid]
IC50 [1, 3]: < 500 nM
IC50 [2, 4]: < 500 nM

COc1ccccc1Cc1noc(-c2cc(Br)ccc2OCC(=O)O)n1 [D119, {4-Bromo-2-[3-(2-methoxy-benzyl)-[1,2,4]oxadiazol-5-yl]-phenoxy}-acetic acid]
IC50 [1, 3]: < 500 nM
IC50 [2, 4]: < 500 nM

O=C(O)COc1ccc(Br)cc1-c1nc(Cc2ccccc2Cl)no1 [D120, {4-Bromo-2-[3-(2-chloro-benzyl)-[1,2,4]oxadiazol-5-yl]-phenoxy}-acetic acid]
IC50 [1, 3]: < 500 nM
IC50 [2, 4]: < 500 nM

O=C(O)COc1ccc(Br)cc1-c1nc(Cc2c(Cl)cccc2Cl)no1 [D121, {4-Bromo-2-[3-(2,6-dichloro-benzyl)-[1,2,4]oxadiazol-5-yl]-phenoxy}-acetic acid]
IC50 [1, 3]: < 500 nM
IC50 [2, 4]: < 500 nM

O=C(O)COc1ccc(Br)cc1-c1nc(Cc2ccc(Cl)cc2Cl)no1 [D122, {4-Bromo-2-[3-(2,4-dichloro-benzyl)-[1,2,4]oxadiazol-5-yl]-phenoxy}-acetic acid]
IC50 [1, 3]: < 500 nM
IC50 [2, 4]: < 500 nM

O=C(O)COc1ccc(Br)cc1-c1nc(Cc2ccc(Cl)c(Cl)c2)no1 [D123, {4-Bromo-2-[3-(3,4-dichlorobenzyl)-[1,2,4]oxadiazol-5-yl]-phenoxy}acetic acid]
IC50 [1, 3]: < 500 nM
IC50 [2, 4]: < 500 nM

COc1ccc(Cc2noc(-c3cc(Br)ccc3OCC(=O)O)n2)cc1OC [D124, {4-Bromo-2-[3-(3,4-dimethoxybenzyl)-[1,2,4]oxadiazol-5-yl]phenoxy}-acetic acid]
IC50 [1, 3]: < 500 nM
IC50 [2, 4]: < 500 nM

COc1cccc(Cc2noc(-c3cc(Br)ccc3OCC(=O)O)n2)c1 [D125, {4-Bromo-2-[3-(3-methoxybenzyl)-[1,2,4]oxadiazol-5-yl]phenoxy}acetic acid]
IC50 [1, 3]: > 5000 nM
IC50 [2, 4]: < 500 nM

Cc1ccc(Cc2noc(-c3cc(Br)ccc3OCC(=O)O)n2)cc1 [D126, {4-Bromo-2-[3-(4-methylbenzyl)-[1,2,4]oxadiazol-5-yl]phenoxy}acetic acid]
IC50 [1, 3]: < 500 nM
IC50 [2, 4]: < 500 nM

O=C(O)COc1ccc(Br)cc1-c1nc(Cc2ccccc2C(F)(F)F)no1 [D127, {4-Bromo-2-[3-(2-trifluoromethylbenzyl)-[1,2,4]oxadiazol-5-yl]phenoxy}-acetic acid]
IC50 [1, 3]: < 500 nM
IC50 [2, 4]: < 500 nM

COc1cc(Cc2noc(-c3cc(Br)ccc3OCC(=O)O)n2)cc(OC)c1 [D128, {4-Bromo-2-[3-(3,5-dimethoxybenzyl)-[1,2,4]oxadiazol-5-yl]phenoxy}acetic acid]
IC50 [1, 3]: 500 to 5000 nM
IC50 [2, 4]: < 500 nM

O=C(O)COc1ccc(Br)cc1-c1nc(-c2ccc(Cl)cc2Cl)no1 [D129, {4-Bromo-2-[3-(2,4-dichlorophenyl)-[1,2,4]oxadiazol-5-yl]phenoxy}acetic acid]
IC50 [1, 3]: < 500 nM
IC50 [2, 4]: < 500 nM

O=C(O)COc1ccc(Br)cc1-c1nc(Cc2cccc(Cl)c2)no1 [D130, {4-Bromo-2-[3-(3-chlorobenzyl)-[1,2,4]oxadiazol-5-yl]phenoxy}acetic acid]
IC50 [1, 3]: < 500 nM
IC50 [2, 4]: < 500 nM

CC(=O)Nc1ccc(Cc2noc(-c3cc(Br)ccc3OCC(=O)O)n2)cc1 [D131, {2-[3-(4-Acetylaminobenzyl)-[1,2,4]oxadiazol-5-yl]-4-bromophenoxy}acetic acid]
IC50 [1, 3]: < 500 nM
IC50 [2, 4]: < 500 nM

O=C(O)COc1ccc(Br)cc1-c1nc(C2(c3ccccc3)CC2)no1 [D132, {4-Bromo-2-[3-(1-phenylcyclopropyl)-[1,2,4]oxadiazol-5-yl]phenoxy}acetic acid]
IC50 [1, 5]: < 500 nM
IC50 [2, 6]: < 500 nM

O=C(O)COc1ccc(Br)cc1-c1nc(-c2ccccn2)no1 [D133, [4-Bromo-2-(3-pyridin-[1,2,4]oxadiazol-5-yl)phenoxy]acetic acid]
IC50 [1, 5]: > 5000 nM
IC50 [2, 6]: < 500 nM

COc1ccc(-c2ccc(-c3nc(-c4cc(Br)ccc4OCC(=O)O)no3)cc2)cc1 [D134, {4-Bromo-2-[5-(4′-methoxybiphenyl-4-yl)-[1,2,4]oxadiazol-3-yl]phenoxy}acetic acid]
IC50 [1, 5]: < 500 nM
IC50 [2, 6]: < 500 nM

O=C(O)COc1ccc(Br)cc1-c1noc(-c2ccc(Cl)cc2)n1 [D135, {4-Bromo-2-[5-(4-chlorophenyl)-[1,2,4]oxadiazol-3-yl]phenoxy}acetic acid]
IC50 [1, 5]: < 500 nM
IC50 [2, 6]: < 500 nM

O=C(O)COc1ccc(Br)cc1-c1noc(-c2cccc(Cl)c2)n1 [D136, {4-Bromo-2-[5-(3-chlorophenyl)-[1,2,4]oxadiazol-3-yl]phenoxy}acetic acid]
IC50 [1, 5]: < 500 nM
IC50 [2, 6]: < 500 nM

O=C(O)COc1ccc(Br)cc1-c1noc(-c2ccccc2Cl)n1 [D137, {4-Bromo-2-[5-(2-chlorophenyl)-[1,2,4]oxadiazol-3-yl]phenoxy}acetic acid]
IC50 [1, 5]: < 500 nM
IC50 [2, 6]: < 500 nM

O=C(O)COc1ccc(Br)cc1-c1noc(-c2ccccc2)n1 [D138, [4-Bromo-2-(5-phenyl-[1,2,4]oxadiazol-3-yl)phenoxy]acetic acid]
IC50 [1, 5]: > 5000 nM
IC50 [2, 6]: < 500 nM
